Entries after “also recorded” stand apart in the source; their conditions may differ.
Experiments:
[1] = system: serum chemistry biomarkers of hepatotoxicity; experiment: Hepatotoxicity serum biomarker study, oral dose; type: in vivo, dogs; settings: for serum biomarkers of hepatotoxicity (ALT, AST, ALP, GGT): dogs, 50 mg/kg PO; for ALT levels elevation: single PO dose of 50 mg/kg
Source text: […] 11A, showing measurements of alanine aminotranferease [ALT], aspartate aminotranferease [AST], alkaline phosphatase [ALP] and gamma-glutamyl transferase [GGT] in the dogs at each dose level (each bar represents a measurement from 1 dog in the study).

[2] = 7-day i.p. repeat dose screening toxicity study; type: in vivo, rats; settings: 50 mg/kg/day i.p. for 7 consecutive days
Procedure: The compound of Formula (I) was evaluated in a 7-day repeat dose screening toxicity study in female rats. In order to maximize systemic exposure, rats were administered compound of Formula (I) i.p. at 50 mg/kg/day for 7 consecutive days, to obtain the results shown in FIG. 9. Clinical chemistry parameters were evaluated on Days 3 and 8. Histopathology was performed on select organs including the liver, kidney, spleen, and lung.

[3] = system: TRP channels and voltage-gated ion channels; experiment: Selectivity over the panel of eight tested channels; type: cell-based, human; settings: eight channels of Table 2
Procedure: Data for TRPA1 inhibition and the selectivity of TRPA1 inhibition was obtained by this method for the compound of Formula (I) and included in Table 1 and Table 2. All currents were recorded in whole-cell configuration using EPC-9 and EPC-10 amplifiers and Patchmaster software (HEKA). […] The standard pipette solution consisted of 140 mM CsAsp, 10 mM EGTA, 10 mM HEPES, 2.27 mM MgCl2, 1.91 mM CaCl2, 4 mM MgATP, and 0.1-0.3 mM Na2GTP, with pH adjusted to 7.2 with CsOH. In addition, a solution containing 145 mM CsCl, 10 mM HEPES, 10 mM EGTA and 1 mM MgCl2 (pH 7.2 adjusted with csOH) can be used. The standard bath solution contained 150 mM NaCl, 10 mM HEPES, 10 mM glucose, 4.5 mM KCl, 1 mM EGTA, 3 mM MgCl2, with pH adjusted to 7.4 with NaOH. In some instances, 2 mM CaCl2 was added in place of EGTA and the concentration of MgCl2 was reduced to 1 mM.

| Structure (SMILES) | serum biomarkers of hepatotoxicity (ALT, AST, ALP, GGT) [1] | ALT levels elevation ([1]; female beagle dogs) | ALT levels elevation ([1]; male dogs) | serum biomarkers of hepatotoxicity ([2]; rats) | selectivity for block of TRPA1 over all other tested channels [3] | histopathology of liver, kidney, spleen, lung ([2]; female rats, days 3 and 8, 50 mg/kg/day) |
| --- | --- | --- | --- | --- | --- | --- |
| C[C@H]1CCCN1c1ccc(-c2csc(NC(=O)Cn3cnc4c3c(=O)n(C)c(=O)n4C)n2)cc1F [Formula (III)] | did elevate serum biomarkers of hepatotoxicity | up to 130 fold | up to 60 fold | did elevate serum biomarkers of hepatotoxicity |  |  |
| C[C@H]1CCCN1c1ncc(-c2cccc(NC(=O)Cn3cnc4c3c(=O)n(C)c(=O)n4C)n2)cn1 [Formula (I)] | did not elevate serum biomarkers of hepatotoxicity or acute phase response |  |  |  | at least 100 fold | No histopathological findings; also recorded: no adverse effects |
